Common to all, as to test: relative viability (nuclei count vs DMSO), 5 days (fraction); higher = more cells survive
Compound in the assay “Sunitinib + Vorinostat”: CCN(CC)CCNC(=O)c1c(C)[nH]c(/C=C2\C(=O)Nc3ccc(F)cc32)c1C [Sunitinib] + O=C(CCCCCCC(=O)Nc1ccccc1)NO [Vorinostat] (partner 1 µM)
Put shortly: (§1)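 Relative viability was taken as the ratio of nuclei in treated wells to nuclei in vehicle wells. Lung cancer cell lines in 1536-well plates received compounds by pin tool one day after seeding, either one drug alone or a fixed anchor-drug dose plus five library-drug doses (not always all listed) in √10 steps. Nuclei were counted on 4× images after 5 days of treatment, and values are medians of duplicate plates.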

Compound in the assay “Sunitinib + Palbociclib”: CCN(CC)CCNC(=O)c1c(C)[nH]c(/C=C2\C(=O)Nc3ccc(F)cc32)c1C [Sunitinib] + CC(=O)c1c(C)c2cnc(Nc3ccc(N4CCNCC4)cn3)nc2n(C2CCCC2)c1=O [Palbociclib] (partner 0.5 µM)
The essentials: as §1

Compound in the assay “Sunitinib + AZD7762”: CCN(CC)CCNC(=O)c1c(C)[nH]c(/C=C2\C(=O)Nc3ccc(F)cc32)c1C [Sunitinib] + NC(=O)Nc1cc(-c2cccc(F)c2)sc1C(=O)N[C@H]1CCCNC1 [AZD7762] (partner 0.2 µM)
The essentials: as §1

Compound in the assay “Sunitinib + Crizotinib”: CCN(CC)CCNC(=O)c1c(C)[nH]c(/C=C2\C(=O)Nc3ccc(F)cc32)c1C [Sunitinib] + C[C@@H](Oc1cc(-c2cnn(C3CCNCC3)c2)cnc1N)c1c(Cl)ccc(F)c1Cl [Crizotinib] (partner 1 µM)
The essentials:
as §1

In the case of 201T, the relative viability in the assay with Sunitinib + Vorinostat (first compound 0.02 µM) was determined as 0.932; in the assay with Sunitinib + Vorinostat (first compound 0.06325 µM), 1.05; with Sunitinib + Vorinostat (first compound 0.2 µM), 1.02; with Sunitinib + Vorinostat (first compound 0.6325 µM) it was 0.954; with Sunitinib + Vorinostat (first compound 2 µM), 0.965; with Sunitinib + Palbociclib (first compound 0.02 µM) it was 0.347. For the same cell line, the relative viability in the assay with Sunitinib + Palbociclib (first compound 0.06325 µM) turned out to be 0.363; with Sunitinib + Palbociclib (first compound 0.2 µM) it was 0.336; in the assay with Sunitinib + Palbociclib (first compound 0.6325 µM), 0.352; with Sunitinib + Palbociclib (first compound 2 µM), 0.378; with Sunitinib + AZD7762 (first compound 0.02 µM), 0.544; with Sunitinib + AZD7762 (first compound 0.06325 µM), 0.705. Also, the relative viability stood at 0.688 with Sunitinib + AZD7762 (first compound 0.2 µM); 0.664 with Sunitinib + AZD7762 (first compound 0.6325 µM); 0.588 in the assay with Sunitinib + AZD7762 (first compound 2 µM); 0.981 with Sunitinib + Crizotinib (first compound 0.02 µM); 0.978 with Sunitinib + Crizotinib (first compound 0.06325 µM); 1.03 with Sunitinib + Crizotinib (first compound 0.2 µM). Besides, the relative viability in the assay with Sunitinib + Crizotinib (first compound 0.6325 µM) is 1.02; with Sunitinib + Crizotinib (first compound 2 µM), 1.06.

With A549, the relative viability in the assay with Sunitinib + Crizotinib (first compound 0.02 µM) stood at 0.722; in the assay with Sunitinib + Crizotinib (first compound 0.06325 µM), 0.816; in the assay with Sunitinib + Crizotinib (first compound 0.6325 µM), 0.906; in the assay with Sunitinib + Crizotinib (first compound 2 µM) it was 0.711.

On to A-427, for which the relative viability with Sunitinib + Vorinostat (first compound 0.02 µM) amounted to 0.871; with Sunitinib + Vorinostat (first compound 0.06325 µM), 0.915; with Sunitinib + Vorinostat (first compound 0.2 µM) it was 0.912; in the assay with Sunitinib + Vorinostat (first compound 0.6325 µM), 0.887; with Sunitinib + Vorinostat (first compound 2 µM), 0.898; with Sunitinib + Palbociclib (first compound 0.02 µM), 0.508. The relative viability is 0.544 with Sunitinib + Palbociclib (first compound 0.06325 µM); 0.568 in the assay with Sunitinib + Palbociclib (first compound 0.2 µM); 0.545 with Sunitinib + Palbociclib (first compound 0.6325 µM); 0.546 with Sunitinib + Palbociclib (first compound 2 µM); 0.773 in the assay with Sunitinib + AZD7762 (first compound 0.02 µM); 0.761 with Sunitinib + AZD7762 (first compound 0.06325 µM). Besides, the relative viability in the assay with Sunitinib + AZD7762 (first compound 0.2 µM) came out at 0.777; in the assay with Sunitinib + AZD7762 (first compound 0.6325 µM), 0.711; with Sunitinib + AZD7762 (first compound 2 µM), 0.679; with Sunitinib + Crizotinib (first compound 0.02 µM), 0.865; with Sunitinib + Crizotinib (first compound 0.06325 µM) it was 0.885; with Sunitinib + Crizotinib (first compound 0.2 µM), 1.09. Moreover, the relative viability is 0.847 with Sunitinib + Crizotinib (first compound 0.6325 µM) and 0.787 in the assay with Sunitinib + Crizotinib (first compound 2 µM).

On to ABC-1, for which the relative viability stood at 1.22 with Sunitinib + Vorinostat (first compound 0.02 µM); 1.38 in the assay with Sunitinib + Vorinostat (first compound 0.06325 µM); 1.05 with Sunitinib + Vorinostat (first compound 0.2 µM); 1.09 in the assay with Sunitinib + Vorinostat (first compound 0.6325 µM); 0.623 in the assay with Sunitinib + Palbociclib (first compound 0.02 µM); 0.57 with Sunitinib + Palbociclib (first compound 0.06325 µM). Also, the relative viability was 0.609 in the assay with Sunitinib + Palbociclib (first compound 0.2 µM); 0.763 in the assay with Sunitinib + Palbociclib (first compound 0.6325 µM); 0.724 with Sunitinib + Palbociclib (first compound 2 µM); 0.77 in the assay with Sunitinib + AZD7762 (first compound 0.02 µM); 0.863 with Sunitinib + AZD7762 (first compound 0.06325 µM); 0.921 in the assay with Sunitinib + AZD7762 (first compound 0.2 µM). The relative viability with Sunitinib + AZD7762 (first compound 0.6325 µM) was found to be 0.865; in the assay with Sunitinib + AZD7762 (first compound 2 µM), 0.927; with Sunitinib + Crizotinib (first compound 0.02 µM), 1.08; with Sunitinib + Crizotinib (first compound 0.06325 µM), 1.12; in the assay with Sunitinib + Crizotinib (first compound 0.2 µM), 1.03; in the assay with Sunitinib + Crizotinib (first compound 0.6325 µM), 1.03. The relative viability with Sunitinib + Crizotinib (first compound 2 µM) is 0.739.

Take BEN: the relative viability in the assay with Sunitinib + Vorinostat (first compound 0.02 µM) was determined as 0.535; in the assay with Sunitinib + Vorinostat (first compound 0.06325 µM), 0.637; in the assay with Sunitinib + Vorinostat (first compound 0.2 µM), 0.571; with Sunitinib + Vorinostat (first compound 0.6325 µM), 0.574; with Sunitinib + Vorinostat (first compound 2 µM), 0.533; with Sunitinib + Palbociclib (first compound 0.02 µM), 0.487. Besides, the relative viability in the assay with Sunitinib + Palbociclib (first compound 0.06325 µM) amounted to 0.467; with Sunitinib + Palbociclib (first compound 0.2 µM), 0.452; with Sunitinib + Palbociclib (first compound 0.6325 µM) it was 0.445; in the assay with Sunitinib + Palbociclib (first compound 2 µM), 0.496; with Sunitinib + AZD7762 (first compound 0.02 µM) it was 0.774; with Sunitinib + AZD7762 (first compound 0.06325 µM), 0.755. Moreover, the relative viability with Sunitinib + AZD7762 (first compound 0.2 µM) stood at 0.815; in the assay with Sunitinib + AZD7762 (first compound 0.6325 µM) it was 0.661; in the assay with Sunitinib + AZD7762 (first compound 2 µM), 0.66; in the assay with Sunitinib + Crizotinib (first compound 0.02 µM) it was 0.835; with Sunitinib + Crizotinib (first compound 0.06325 µM), 0.956; with Sunitinib + Crizotinib (first compound 0.2 µM) it was 1.18. For the same cell line, the relative viability with Sunitinib + Crizotinib (first compound 0.6325 µM) was determined as 0.93; with Sunitinib + Crizotinib (first compound 2 µM) it was 0.955.

CAL-12T: the relative viability came to 0.541 with Sunitinib + Vorinostat (first compound 0.02 µM); 0.864 in the assay with Sunitinib + Vorinostat (first compound 0.06325 µM); 1.04 in the assay with Sunitinib + Vorinostat (first compound 0.2 µM); 0.902 in the assay with Sunitinib + Vorinostat (first compound 0.6325 µM); 0.682 with Sunitinib + Vorinostat (first compound 2 µM); 0.416 with Sunitinib + Palbociclib (first compound 0.02 µM). In addition, the relative viability is 0.427 with Sunitinib + Palbociclib (first compound 0.06325 µM); 0.46 in the assay with Sunitinib + Palbociclib (first compound 0.2 µM); 0.493 in the assay with Sunitinib + Palbociclib (first compound 0.6325 µM); 0.473 in the assay with Sunitinib + Palbociclib (first compound 2 µM); 0.648 in the assay with Sunitinib + AZD7762 (first compound 0.02 µM); 0.663 with Sunitinib + AZD7762 (first compound 0.06325 µM). The relative viability with Sunitinib + AZD7762 (first compound 0.2 µM) was 0.65; in the assay with Sunitinib + AZD7762 (first compound 0.6325 µM), 0.731; with Sunitinib + AZD7762 (first compound 2 µM), 0.76; in the assay with Sunitinib + Crizotinib (first compound 0.02 µM) it was 0.564; with Sunitinib + Crizotinib (first compound 0.06325 µM), 0.735; with Sunitinib + Crizotinib (first compound 0.2 µM), 0.623. In addition, the relative viability stood at 0.791 with Sunitinib + Crizotinib (first compound 0.6325 µM) and 0.582 with Sunitinib + Crizotinib (first compound 2 µM).

Regarding COR-L23, the relative viability came out at 0.457 with Sunitinib + Vorinostat (first compound 0.02 µM); 0.515 in the assay with Sunitinib + Vorinostat (first compound 0.06325 µM); 0.484 in the assay with Sunitinib + Vorinostat (first compound 0.2 µM); 0.464 with Sunitinib + Vorinostat (first compound 0.6325 µM); 0.503 in the assay with Sunitinib + Vorinostat (first compound 2 µM); 0.305 with Sunitinib + Palbociclib (first compound 0.02 µM). Moreover, the relative viability worked out at 0.402 in the assay with Sunitinib + Palbociclib (first compound 0.06325 µM); 0.324 in the assay with Sunitinib + Palbociclib (first compound 0.2 µM); 0.295 with Sunitinib + Palbociclib (first compound 0.6325 µM); 0.363 with Sunitinib + Palbociclib (first compound 2 µM); 0.663 with Sunitinib + Crizotinib (first compound 0.02 µM); 0.748 with Sunitinib + Crizotinib (first compound 0.06325 µM). The relative viability in the assay with Sunitinib + Crizotinib (first compound 0.2 µM) came to 0.799; with Sunitinib + Crizotinib (first compound 0.6325 µM) it was 0.761; with Sunitinib + Crizotinib (first compound 2 µM), 0.727.

With COR-L 105, the relative viability with Sunitinib + Vorinostat (first compound 0.02 µM) was determined as 0.856; with Sunitinib + Vorinostat (first compound 0.06325 µM), 0.646; with Sunitinib + Vorinostat (first compound 0.2 µM) it was 0.817; in the assay with Sunitinib + Vorinostat (first compound 0.6325 µM), 0.797; in the assay with Sunitinib + Vorinostat (first compound 2 µM), 0.744; in the assay with Sunitinib + Palbociclib (first compound 0.02 µM), 0.431. The relative viability was 0.399 in the assay with Sunitinib + Palbociclib (first compound 0.06325 µM); 0.436 with Sunitinib + Palbociclib (first compound 0.2 µM); 0.405 with Sunitinib + Palbociclib (first compound 0.6325 µM); 0.458 with Sunitinib + Palbociclib (first compound 2 µM); 0.513 in the assay with Sunitinib + Crizotinib (first compound 0.02 µM); 0.811 with Sunitinib + Crizotinib (first compound 0.06325 µM). In addition, the relative viability with Sunitinib + Crizotinib (first compound 0.2 µM) turned out to be 0.995; in the assay with Sunitinib + Crizotinib (first compound 0.6325 µM), 0.894; with Sunitinib + Crizotinib (first compound 2 µM), 0.695.

Values taken from the supplement of paper PMC10307832.
